For orientation: Ki means the equilibrium dissociation constant of an inhibitor or competing ligand from its target.

Experiment [1] has as its target Rho-associated protein kinase 1 (Homo sapiens, UniProt Q13464).
Description: Inhibition of ROCK1 assessed as decrease in NADH absorbance at 340 nm in the presence of
In experiment [2] the target is Glycogen synthase kinase-3 beta (Homo sapiens, UniProt P49841).
For experiment [3], the target named is Ribosomal protein S6 kinase beta-1 (Homo sapiens, UniProt P23443). Description: Inhibition of p70S6K assessed as decrease in NADH absorbance at 340 nm in the presence of.
In experiment [4] the target is cAMP-dependent protein kinase catalytic subunit alpha (Homo sapiens, UniProt P17612). Briefly: Inhibition of PKAalpha assessed as decrease in NADH absorbance at 340 nm in the presence of.

Rho-associated protein kinase 1, sequence (Q13464 whole entry): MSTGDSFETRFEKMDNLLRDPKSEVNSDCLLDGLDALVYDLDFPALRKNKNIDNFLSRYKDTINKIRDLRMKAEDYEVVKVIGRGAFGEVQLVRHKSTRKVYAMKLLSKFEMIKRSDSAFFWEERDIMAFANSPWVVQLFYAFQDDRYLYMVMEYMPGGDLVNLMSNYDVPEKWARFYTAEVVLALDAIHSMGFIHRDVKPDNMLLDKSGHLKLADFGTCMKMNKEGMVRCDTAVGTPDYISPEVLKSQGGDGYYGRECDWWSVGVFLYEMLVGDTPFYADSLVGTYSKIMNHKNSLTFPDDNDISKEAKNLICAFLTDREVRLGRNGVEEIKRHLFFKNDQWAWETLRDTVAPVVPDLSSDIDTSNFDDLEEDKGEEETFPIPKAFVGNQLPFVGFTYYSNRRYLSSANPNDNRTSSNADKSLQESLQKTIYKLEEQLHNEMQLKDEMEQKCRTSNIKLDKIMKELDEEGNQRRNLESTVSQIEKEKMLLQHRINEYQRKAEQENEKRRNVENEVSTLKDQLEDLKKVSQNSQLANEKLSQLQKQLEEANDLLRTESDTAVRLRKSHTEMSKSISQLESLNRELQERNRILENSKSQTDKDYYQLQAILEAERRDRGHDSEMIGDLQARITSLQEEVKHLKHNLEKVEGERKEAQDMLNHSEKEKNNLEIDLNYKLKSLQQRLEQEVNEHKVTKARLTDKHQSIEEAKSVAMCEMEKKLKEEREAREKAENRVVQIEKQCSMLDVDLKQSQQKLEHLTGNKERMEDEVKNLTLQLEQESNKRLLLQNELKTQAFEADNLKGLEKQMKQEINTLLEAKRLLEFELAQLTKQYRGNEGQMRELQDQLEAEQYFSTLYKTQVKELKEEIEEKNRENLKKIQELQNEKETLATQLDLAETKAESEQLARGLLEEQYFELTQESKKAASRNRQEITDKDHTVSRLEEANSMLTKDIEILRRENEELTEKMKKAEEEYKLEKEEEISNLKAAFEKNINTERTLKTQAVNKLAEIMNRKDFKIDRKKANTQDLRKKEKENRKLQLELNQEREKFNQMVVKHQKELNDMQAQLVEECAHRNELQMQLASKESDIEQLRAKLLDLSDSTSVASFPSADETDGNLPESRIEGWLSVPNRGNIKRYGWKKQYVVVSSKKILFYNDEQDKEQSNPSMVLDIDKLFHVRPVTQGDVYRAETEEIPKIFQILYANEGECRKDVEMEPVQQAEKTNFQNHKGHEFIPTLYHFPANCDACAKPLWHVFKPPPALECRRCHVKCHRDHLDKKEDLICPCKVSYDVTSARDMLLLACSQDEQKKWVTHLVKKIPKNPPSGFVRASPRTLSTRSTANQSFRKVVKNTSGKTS
Glycogen synthase kinase-3 beta, sequence (P49841 whole entry): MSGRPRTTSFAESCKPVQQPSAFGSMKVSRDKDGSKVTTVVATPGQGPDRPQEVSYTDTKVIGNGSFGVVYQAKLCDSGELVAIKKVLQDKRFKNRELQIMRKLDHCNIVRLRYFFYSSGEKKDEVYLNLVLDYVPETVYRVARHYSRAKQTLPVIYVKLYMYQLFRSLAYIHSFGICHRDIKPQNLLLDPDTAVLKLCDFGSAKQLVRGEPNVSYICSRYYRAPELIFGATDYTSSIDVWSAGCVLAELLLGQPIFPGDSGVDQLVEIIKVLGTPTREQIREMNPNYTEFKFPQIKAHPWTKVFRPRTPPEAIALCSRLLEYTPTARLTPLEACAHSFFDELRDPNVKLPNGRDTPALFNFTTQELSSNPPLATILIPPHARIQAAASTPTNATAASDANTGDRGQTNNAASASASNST
Ribosomal protein S6 kinase beta-1, sequence (P23443 whole entry): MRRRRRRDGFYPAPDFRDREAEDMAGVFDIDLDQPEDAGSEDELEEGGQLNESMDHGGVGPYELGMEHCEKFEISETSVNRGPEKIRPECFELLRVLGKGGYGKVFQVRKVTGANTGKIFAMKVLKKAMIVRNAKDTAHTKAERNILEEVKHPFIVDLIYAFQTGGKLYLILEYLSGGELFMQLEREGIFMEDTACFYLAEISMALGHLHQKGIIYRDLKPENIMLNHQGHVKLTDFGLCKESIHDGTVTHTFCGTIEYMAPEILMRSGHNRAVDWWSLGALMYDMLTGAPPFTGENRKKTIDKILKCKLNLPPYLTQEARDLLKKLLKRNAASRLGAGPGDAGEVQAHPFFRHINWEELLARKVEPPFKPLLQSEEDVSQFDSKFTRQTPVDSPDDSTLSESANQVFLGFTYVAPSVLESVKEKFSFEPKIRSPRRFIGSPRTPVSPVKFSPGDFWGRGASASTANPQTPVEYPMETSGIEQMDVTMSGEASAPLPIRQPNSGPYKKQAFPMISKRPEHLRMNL

In the case of `Cc1cn(CC(C)C)c(-c2nonc2N)n1`, the Ki in experiment [1] is above 3300 nM; in experiment [2] it was 690 nM; in experiment [3] it was 340 nM; in experiment [4], above 3300 nM.
Turning to `COc1cccc(-n2c(-c3nonc3N)nc3ccccc32)c1`, the results for the Ki in experiment [1], in experiment [2] and in experiment [3] were above 5000 nM, above 5000 nM and 1900 nM, respectively.
`COc1ccc(-n2c(-c3nonc3N)nc3ccccc32)cc1`: the Ki in experiment [1] is 2100 nM; in experiment [2], above 5000 nM; in experiment [3] it was 550 nM; in experiment [4], above 4000 nM.
With `Nc1nonc1-c1nc2ccccc2n1-c1ccccc1`, the inhibitory constant (Ki) in experiment [1] came to 590 nM; in experiment [2] it was 620 nM; in experiment [3], 110 nM; in experiment [4], 1300 nM.
Taken in the same sequence, the figures for `N#Cc1ccccc1-n1c(-c2nonc2N)nc2ccccc21` were 810 nM, above 3300 nM, 26 nM and above 5000 nM.
Taken in the same sequence, the figures for `N#Cc1cccc(-n2c(-c3nonc3N)nc3ccccc32)c1` were above 2500 nM, above 2500 nM, 800 nM and above 5000 nM.
For the compound `N#Cc1ccc(-n2c(-c3nonc3N)nc3ccccc32)cc1`, the Ki in experiment [1] is above 2500 nM; in experiment [2], 1000 nM; in experiment [3] it was 800 nM; in experiment [4], above 5000 nM.
Take `COc1ccccc1-n1c(-c2nonc2N)nc2ccccc21`: the Ki was 1300 nM in experiment [1], above 5000 nM in experiment [2], 31 nM in experiment [3] and above 5000 nM in experiment [4].
In the case of `Cn1c(-c2nonc2N)nc2ccccc21`, the Ki in experiment [1] was above 3300 nM; in experiment [2], 7300 nM; in experiment [3], 540 nM; in experiment [4], above 4000 nM.
In the case of `Nc1nonc1-c1nc2ccccc2n1CC1CCC1`, the Ki in experiment [3] amounted to 69 nM; in experiment [4], 1400 nM.
Regarding `Nc1nonc1-c1nc2ccccc2n1C1CCCCC1`, the Ki in experiment [1] turned out to be 720 nM; in experiment [2], 240 nM; in experiment [3], 12 nM; in experiment [4] it was 600 nM.
Taken in the same sequence, the figures for `Nc1nonc1-c1nc2ccccc2n1CC1CC1` were 360 nM, 290 nM, 12 nM and 380 nM.
Consider `Nc1nonc1-c1nc2cc(O)ccc2n1C1CCC1`, for which the Ki in experiment [1] is 2200 nM; in experiment [2], 1100 nM; in experiment [3], below 1 nM; in experiment [4], 2800 nM.
On to `CC(C)Cn1c(-c2nonc2N)nc2ccccc21`, for which the values for the Ki in experiment [1], in experiment [3] and in experiment [4] were 930 nM, 22 nM and 1100 nM, respectively.
With `Cc1ccc2c(c1)nc(-c1nonc1N)n2C1CCC1`, the Ki in experiment [1] is above 3300 nM; in experiment [2], 3200 nM; in experiment [3], 19 nM; in experiment [4], 2600 nM.
Consider `CC(C)n1c(-c2nonc2N)nc2ccccc21`, for which the Ki was 1900 nM in experiment [1], 1500 nM in experiment [2], 40 nM in experiment [3] and above 3300 nM in experiment [4].
Turning to `CC(C)Cn1cc(-c2ccccc2)nc1-c1nonc1N`, the Ki was above 3300 nM in experiment [1], above 3300 nM in experiment [2], 89 nM in experiment [3] and 1200 nM in experiment [4].
As to `Nc1nonc1-c1nc2ccccc2n1C1CC1`, the Ki in experiment [1] is 450 nM; in experiment [2], above 3300 nM; in experiment [3] it was 95 nM; in experiment [4], above 3300 nM.
Turning to `Nc1nonc1-c1nc2ccccc2n1C1CCC1`, the Ki came to 180 nM in experiment [1], 380 nM in experiment [2], 4 nM in experiment [3] and 540 nM in experiment [4].
As for `Nc1nonc1-c1nc2ccccc2n1C1CCCC1`, the Ki in experiment [1] came to 340 nM; in experiment [2], 210 nM; in experiment [3], 13 nM; in experiment [4], 720 nM.
Taken in the same sequence, the figures for `Nc1ccc2c(c1)nc(-c1nonc1N)n2C1CCC1` were 85 nM, 2100 nM, below 1 nM and 34 nM.
Regarding `COc1ccc2c(c1)nc(-c1nonc1N)n2C1CCC1`, the Ki in experiment [1] was determined as 940 nM; in experiment [2], 460 nM; in experiment [3], 39 nM; in experiment [4], 2500 nM.
Taken in the same sequence, the figures for `COC(=O)c1ccc2c(c1)nc(-c1nonc1N)n2C1CCC1` were above 3300 nM, above 3300 nM, 410 nM and above 3300 nM.
Taken in the same sequence, the figures for `CC(=O)Nc1ccc2c(c1)nc(-c1nonc1N)n2C1CCC1` were above 3300 nM, above 3300 nM, 2200 nM and above 3300 nM.
With `Nc1nonc1-c1nc2cc(CO)ccc2n1C1CCC1`, the Ki is above 3300 nM in experiment [1], above 3300 nM in experiment [2], 16 nM in experiment [3] and 1500 nM in experiment [4].
With `CC(C)Cn1cc(C#N)nc1-c1nonc1N`, the Ki in experiment [1] is above 3300 nM; in experiment [2] it was above 3300 nM; in experiment [3], 1600 nM; in experiment [4], above 3300 nM.
`CCn1c(-c2nonc2N)nc2ccccc21` [GW549034X]: the Ki in experiment [1] amounted to 330 nM; in experiment [2], 700 nM; in experiment [3] it was 50 nM; in experiment [4] it was 960 nM.
